Measured values as given in patent publication US9242978B2, “Phenylacetamide compound and pharmaceutical containing same” (KOWA COMPANY, LTD., priority 2012, dated 2016).
Read-outs that look alike come from different tables or passages of the source.

How the values were obtained:
[1] = biological target: T1, GST-GK derived from human liver GK (Homo sapiens, UniProt P35557); assay: In vitro GK activating action measurement test; type: biochemical; conditions: 10 min; test compound 1 μmol/L, glucose 2.5 mmol/L, 25° C.; read-out: GK activation rate (%)
T1 construct: made in house; host or cells: Escherichia coli DH5α
T1 sequence (P35557 1-466 isoform P35557-2): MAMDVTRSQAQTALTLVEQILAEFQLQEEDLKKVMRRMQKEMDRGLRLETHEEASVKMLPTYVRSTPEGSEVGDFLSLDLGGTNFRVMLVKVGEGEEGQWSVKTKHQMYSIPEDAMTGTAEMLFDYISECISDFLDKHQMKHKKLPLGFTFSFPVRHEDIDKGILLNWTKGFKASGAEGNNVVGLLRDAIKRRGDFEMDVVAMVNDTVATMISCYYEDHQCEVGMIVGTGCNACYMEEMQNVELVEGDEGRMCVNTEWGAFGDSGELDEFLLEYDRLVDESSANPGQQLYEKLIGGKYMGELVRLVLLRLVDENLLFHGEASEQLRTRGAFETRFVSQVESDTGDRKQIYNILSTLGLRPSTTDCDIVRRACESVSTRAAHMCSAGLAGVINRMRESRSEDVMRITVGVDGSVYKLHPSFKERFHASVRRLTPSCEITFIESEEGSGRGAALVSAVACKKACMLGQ
Excerpt: cDNA (GenBank Accession No. NM_033507, human glucokinase, variant 2) encoding human liver-type GK polypeptide was cloned by performing a polymerase chain reaction (hereinafter referred to as “PCR”) using a human liver cDNA library (Human liver QUICK-Clone cDNA, TAKARA BIO INC.), and the thus cloned cDNA was then introduced into an expression vector (pGEX-3X, GE Healthcare Japan) for glutathione S transferase (hereinafter referred to as GST) fusion proteins. The resulting vector was introduced into Escherichia coli (Competent high DH5α, Toyobo Co., Ltd.), and the transformed Escherichia coli was then cultured at 37° C. Thereafter, Isopropyl β-D-1-thiogalactopyranoside (final concentration: 1 mmol/L, Sigma Aldrich Japan) was added to the culture, and the obtained mixture was then cultured at 30° C. for 3 hours. Thereafter, a cell mass was recovered. The recovered cell mass was subjected to freezing-and-thawing, and the resulting cell mass was then suspended in Triton-X that had been added in a final concentration of 1% to a phosphate buffer, followed by disintegration with an ultrasonic disintegrator. The homogenate was centrifuged at 33,200 rpm at 4° C. for 1 hour. Thereafter, the supernatant was recovered, and a GST-GK fusion protein was then purified using a glutathione column (GSTrap FF, GE Healthcare Japan). The obtained GST-GK fusion protein was divided into some portions each having a small volume, and the thus divided proteins were then preserved at −80° C.
A GK assay was carried out at 25° C. at a final incubation volume of 100 μL using a flat-bottom 96-well assay plate. An assay buffer comprised 25 mmol/L Hepes buffer (pH 7.1), 25 mmol/L KCl, 2.5 mmol/L or 10 mmol/L D-glucose, 5 mmol/L ATP, 1 mmol/L nicotinamide adenine dinucleotide phosphate (abbreviated as NADP), 2 mmol/L MgCl2, 1 mmol/L dithiothreitol (DTT), 2 units/mL glucose-6 phosphate dehydrogenase (G6PDH), and 1 μg/mL GST-GK derived from human liver GK. ATP, G6PDH, and NADP were purchased from Roche Diagnostics. […] The thus mixed solution was preincubated in an incubator in which the temperature was controlled at 25° C. for 15 minutes. Subsequently, the reaction was initiated by adding 10 μL of the GST-GK solution to the reaction mixture, resulting in a final concentration of 0.1 μg/mL. After initiation of the reaction, an increase in the optical concentration at 340 nm (OD340) was monitored with a microplate spectrophotometer (Varsamax, Molecular Devices Japan K. K.) every 10 seconds over an incubation period of 10 minutes. An inclination of the OD340 increase was defined as raw data. The GK activating rate was indicated as a numerical value obtained from the expression: (Inclination of OD340 increase by addition of the test compound)/(inclination of OD340 increase without addition of the test compound). The results of the GK activating rate obtained at a test compound concentration of 1 μmol/L under the condition of a glucose concentration of 2.5 mmol/L are shown in the following table 2.

[2] = Evaluation of organ selectivity (non-binding drug concentration in liver and pancreas after oral administration); type: in vivo, normal mice (C57BL/6j mice); conditions: C57BL/6j, mouse, liver and pancreas, mice, 150 minutes after administration
[3] = as above; type: in vivo, normal mice (C57BL/6j mice); conditions: C57BL/6j, mouse, mice, 150 minutes after administration
Method: A test compound suspended in 10% (v/v) Gelucire 44/14 (GATTEFOSSE) was orally administered to normal mice (C57BL/6j mice, CLEA Japan, Inc.). The percentages of drugs that had not bound to proteins in the liver and the pancreas, which had been obtained by the in vitro test, were […] the total concentrations of the drugs in the liver and the pancreas obtained 150 minutes after administration of the drugs, so as to calculate the non-binding concentration of the drug in each case. The ratio of the non-binding concentration of the drug in the […] was calculated, and thus, liver selectivity was evaluated. As a comparative compound, PSN-GK1 described in non-patent document 11 (corresponding to Example 94 of patent document 2) was produced according to the method described in patent document 2, and the produced comparative compound was then evaluated in the same manner as described above (in the table, the comparative compound is indicated as PSN-GK1).

[4] = liver, dose 10 mg/kg, read-out: Non-binding concentration (ng/mL) Liver
[5] = pancreas, dose 10 mg/kg, read-out: Non-binding concentration (ng/mL) Pancreas

`CNC(=O)N1CC[C@H](C[C@@H](C(=O)Nc2ccc(C)cn2)c2ccc(S(=O)(=O)C3CC3)cc2)C1` [Example 19, (S)-3-((R)-2-(4-(cyclopropylsulfonyl)phenyl)-3-((5-methylpyridin-2-yl)amino)-3-oxopropyl)-N-methylpyrrolidine-1-carboxamide] showed an activity at 1 µM [1] of 437%, a selectivity ratio at 150 min ([2]; dose 10 mg/kg) of 17 and a concentration at 150 min [3, 4] of 10 ng/mL. The concentration at 150 min [3, 5] was 0.58 ng/mL.
Work on `CNC(=S)N1CC[C@H](C[C@@H](C(=O)Nc2ncc(F)s2)c2ccc(S(=O)(=O)C3CC3)cc2)C1` [Example 8, (R)-2-(4-(cyclopropylsulfonyl)phenyl)-N-(5-fluorothiazol-2-yl)-3-((S)-1-(methylcarbamothioyl)pyrrolidin-3-yl)propanamide] yielded an activity at 1 µM [1] of 535%.
In the case of `CCCNC(=O)N1CC[C@H](C[C@@H](C(=O)Nc2ncc(F)s2)c2ccc(S(=O)(=O)C3CC3)cc2)C1` [Example 6, (S)-3-((R)-2-(4-(cyclopropylsulfonyl)phenyl)-3-((5-fluorothiazol-2-yl)amino)-3-oxopropyl)-N-propylpyrrolidine-1-carboxamide], the activity at 1 µM [1] is reported as 422%.
Work on `O=C(Nc1ncc(F)s1)[C@H](C[C@H]1CCN(C(=O)NO)C1)c1ccc(S(=O)(=O)C2CC2)cc1` [Example 10, (S)-3-((R)-2-(4-(cyclopropylsulfonyl)phenyl)-3-((5-fluorothiazol-2-yl)amino)-3-oxopropyl)-N-hydroxypyrrolidine-1-carboxamide] yielded an activity at 1 µM [1] of 602%.
In the case of `CC(=O)N1CC[C@H](C[C@@H](C(=O)Nc2ccc(C)cn2)c2ccc(S(=O)(=O)C3CC3)cc2)C1` [Example 23, (R)-3-((S)-1-acetylpyrrolidin-3-yl)-2-(4-(cyclopropylsulfonyl)phenyl)-N-(5-methylpyridin-2-yl)propanamide], the activity at 1 µM [1] is reported as 491%, the selectivity ratio at 150 min ([3]; liver and pancreas, dose 3 mg/kg) is reported as 9 and the concentration at 150 min ([3]; liver, dose 3 mg/kg, read-out: Non-binding concentration (ng/mL) Liver) is reported as 3 ng/mL. For the same compound, the concentration at 150 min ([3]; pancreas, dose 3 mg/kg, read-out: Non-binding concentration (ng/mL) Pancreas) was 0.33 ng/mL.
In the case of `CNC(=O)N1CC[C@H](C[C@@H](C(=O)Nc2ncc(OC)s2)c2ccc(S(=O)(=O)C3CC3)cc2)C1` [Example 14, (S)-3-((R)-2-(4-(cyclopropylsulfonyl)phenyl)-3-((5-methoxythiazol-2-yl)amino)-3-oxopropyl)-N-methylpyrrolidine-1-carboxamide], the activity at 1 µM [1] is reported as 809%.
Compound `COc1cnc(NC(=O)[C@H](C[C@H]2CCN(C(C)=O)C2)c2ccc(S(=O)(=O)C3CC3)cc2)s1` [Example 26, (R)-3-((S)-1-acetylpyrrolidin-3-yl)-2-(4-(cyclopropylsulfonyl)phenyl)-N-(5-methoxythiazol-2-yl)propanamide] has an activity at 1 µM [1] of 877%.
`CNC(=O)N1CC[C@H](C[C@@H](C(=O)Nc2ncc(C)s2)c2ccc(S(=O)(=O)C3CC3)cc2)C1` [Example 16, (S)-3-((R)-2-(4-(cyclopropylsulfonyl)phenyl)-3-((5-methylthiazol-2-yl)amino)-3-oxopropyl)-N-methylpyrrolidine-1-carboxamide] gave an activity at 1 µM [1] of 484%.
`Cc1ccc(NC(=O)[C@H](C[C@H]2CCN(C(N)=O)C2)c2ccc(S(=O)(=O)C3CC3)cc2)nc1` [Example 21, (S)-3-((R)-2-(4-(cyclopropylsulfonyl)phenyl)-3-((5-methylpyridin-2-yl)amino)-3-oxopropyl)pyrrolidine-1-carboxamide] gave an activity at 1 µM [1] of 727%, a selectivity ratio at 150 min ([2]; dose 10 mg/kg) of 25 and a concentration at 150 min [3, 4] of 50 ng/mL. It also gave a concentration at 150 min [3, 5] of 2 ng/mL.
With `CNC(=O)C(=O)N1CC[C@H](C[C@@H](C(=O)Nc2ncc(F)s2)c2ccc(S(=O)(=O)C3CC3)cc2)C1` [Example 11] the activity at 1 µM [1] was 427%.
`COC(=O)N1CC[C@H](C[C@@H](C(=O)Nc2ncc(F)s2)c2ccc(S(=O)(=O)C3CC3)cc2)C1` [Example 7, (S)-methyl 3-((R)-2-(4-(cyclopropylsulfonyl)phenyl)-3-((5-fluorothiazol-2-yl)amino)-3-oxopropyl)pyrrolidine-1-carboxylate] showed an activity at 1 µM [1] of 828%.
In the case of `CNC(=O)N1CC[C@H](C[C@@H](C(=O)Nc2ncc(Cl)s2)c2ccc(S(=O)(=O)C3CC3)cc2)C1` [Example 15, (S)-3-((R)-3-((5-chlorothiazol-2-yl)amino)-2-(4-(cyclopropylsulfonyl)phenyl)-3-oxopropyl)-N-methylpyrrolidine-1-carboxamide], the activity at 1 µM [1] is reported as 737%.
`O=C(Nc1ncc(F)s1)[C@H](C[C@H]1CCN(C(=O)CO)C1)c1ccc(S(=O)(=O)C2CC2)cc1` [Example 13, (R)-2-(4-(cyclopropylsulfonyl)phenyl)-N-(5-fluorothiazol-2-yl)-3-((S)-1-(2-hydroxyacetyl)pyrrolidin-3-yl)propanamide] gave an activity at 1 µM [1] of 443%.
`CC(=O)N1CC[C@H](C[C@@H](C(=O)Nc2ncc(F)s2)c2ccc(S(=O)(=O)C3CC3)cc2)C1` [Example 3, (R)-3-((S)-1-acetylpyrrolidin-3-yl)-2-(4-(cyclopropylsulfonyl)phenyl)-N-(5-fluorothiazol-2-yl)propanamide] showed an activity at 1 µM [1] of 803%, a selectivity ratio at 150 min ([2]; dose 10 mg/kg) of 17 and a concentration at 150 min [3, 4] of 65 ng/mL. The concentration at 150 min [3, 5] was 3.8 ng/mL.
Work on `CNC(=O)N1CC[C@H](C[C@@H](C(=O)Nc2ncc(F)s2)c2ccc(S(=O)(=O)C3CC3)cc2)C1` [Example 2, (S)-3-((R)-2-(4-(cyclopropylsulfonyl)phenyl)-3-((5-fluorothiazol-2-yl)amino)-3-oxopropyl)-N-methylpyrrolidine-1-carboxamide] yielded a selectivity ratio at 150 min ([2]; dose 30 mg/kg) of 41, a concentration at 150 min ([3]; liver, dose 30 mg/kg, read-out: Non-binding concentration (ng/mL) Liver) of 23 ng/mL and a concentration at 150 min ([3]; pancreas, dose 30 mg/kg, read-out: Non-binding concentration (ng/mL) Pancreas) of 0.56 ng/mL.
